The source of these data is ChEMBL document CHEMBL1134412, “(4-Piperidin-1-yl)phenyl amides: potent and selective human beta(3) agonists” (J Med Chem, 2001).

Some results are limits rather than exact numbers.

Assay [1] concerns the target T1, Beta-3 adrenergic receptor (Homo sapiens, UniProt P13945). The assay is described as follows: In vitro increase in cAMP levels in Chinese hamster ovary cells expressing the human cloned beta 3 Adrenergic receptor. It counts as functional, cell-based. A general note: cAMP levels reflect the balance of adenylyl cyclase and phosphodiesterase activity.
Target sequence in this assay (P13945 whole entry): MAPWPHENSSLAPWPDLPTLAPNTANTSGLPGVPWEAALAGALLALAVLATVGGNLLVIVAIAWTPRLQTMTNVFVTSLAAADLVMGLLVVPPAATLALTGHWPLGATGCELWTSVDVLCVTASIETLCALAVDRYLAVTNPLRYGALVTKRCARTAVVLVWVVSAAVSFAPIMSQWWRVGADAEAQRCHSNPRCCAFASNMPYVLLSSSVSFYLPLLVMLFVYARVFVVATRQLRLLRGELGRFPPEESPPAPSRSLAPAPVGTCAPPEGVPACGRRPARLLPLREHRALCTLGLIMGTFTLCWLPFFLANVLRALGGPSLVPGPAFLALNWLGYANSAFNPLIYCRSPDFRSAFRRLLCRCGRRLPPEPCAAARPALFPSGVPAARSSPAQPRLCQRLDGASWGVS
The target in assay [2] is T2, Beta-2 adrenergic receptor (Homo sapiens, UniProt P07550). Put plainly: Increased cAMP levels of Chinese hamster ovary (CHO) cells expressing human beta 2 adrenergic receptors. It counts as functional, cell-based.
Target sequence in this assay (P07550 whole entry): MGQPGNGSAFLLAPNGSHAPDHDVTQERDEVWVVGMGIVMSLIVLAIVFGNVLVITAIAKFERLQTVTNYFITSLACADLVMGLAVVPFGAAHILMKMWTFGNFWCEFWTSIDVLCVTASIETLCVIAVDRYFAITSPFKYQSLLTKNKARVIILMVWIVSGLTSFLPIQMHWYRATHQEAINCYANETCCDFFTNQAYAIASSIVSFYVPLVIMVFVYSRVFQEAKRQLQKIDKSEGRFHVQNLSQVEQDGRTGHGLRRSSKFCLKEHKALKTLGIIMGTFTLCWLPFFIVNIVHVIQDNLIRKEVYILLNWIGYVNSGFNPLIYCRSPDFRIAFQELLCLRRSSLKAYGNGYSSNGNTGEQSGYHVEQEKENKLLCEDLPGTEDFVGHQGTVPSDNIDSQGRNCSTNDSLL
The target of assay [3] is T3, Beta-1 adrenergic receptor (Homo sapiens, UniProt P08588). The assay is described as follows: Increased cAMP levels of Chinese hamster ovary (CHO) cells expressing human beta 1 Adrenergic receptor. It counts as functional, cell-based.
Target sequence in this assay (P08588 whole entry): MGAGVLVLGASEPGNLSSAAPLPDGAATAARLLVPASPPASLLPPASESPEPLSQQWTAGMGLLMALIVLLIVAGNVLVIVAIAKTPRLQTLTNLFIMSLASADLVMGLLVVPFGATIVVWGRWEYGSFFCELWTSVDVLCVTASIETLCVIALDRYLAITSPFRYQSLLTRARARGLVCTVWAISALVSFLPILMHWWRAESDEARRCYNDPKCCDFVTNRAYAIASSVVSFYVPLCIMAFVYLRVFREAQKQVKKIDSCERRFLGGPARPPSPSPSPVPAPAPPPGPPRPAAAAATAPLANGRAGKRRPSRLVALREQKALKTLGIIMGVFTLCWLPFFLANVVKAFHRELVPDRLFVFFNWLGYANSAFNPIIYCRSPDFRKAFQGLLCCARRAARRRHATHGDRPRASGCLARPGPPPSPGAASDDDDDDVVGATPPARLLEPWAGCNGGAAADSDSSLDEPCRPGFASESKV
In assay [4] the target is T3, Beta-1 adrenergic receptor. Put plainly: Inhibition of I-iodocyanopindolol binding to human beta 1 adrenergic receptors.
Target sequence in this assay (P08588 whole entry): as above
Assay [5] concerns the target T2, Beta-2 adrenergic receptor.
Target sequence in this assay (P07550 whole entry): as the sequence (P07550 whole entry) above
Description: Inhibition of I-iodocyanopindolol binding to human beta 2 adrenergic receptors
Assay [6] deals with T1, Beta-3 adrenergic receptor. The assay is described as follows: Compound was tested for increased thermogenesis using beta-3 human transgenic mice.
Target sequence in this assay (P13945 whole entry, looked up): as the sequence (P13945 whole entry) above
Assay [7] concerns the target T2, Beta-2 adrenergic receptor. The assay is described as follows: Intrinsic activity to increase cAMP levels in Chinese hamster ovary (CHO) cells expressing the cloned human beta 2 adrenergic receptors. It counts as cell-based.
Target sequence in this assay (P07550 whole entry, looked up): as the sequence (P07550 whole entry) above
In assay [8] the target is T1, Beta-3 adrenergic receptor. Put plainly: Intrinsic activity to increase cAMP levels in Chinese hamster ovary (CHO) cells expressing the cloned human beta 3 Adrenergic receptor. The format is cell-based.
Target sequence in this assay (P13945 whole entry, looked up): as the sequence (P13945 whole entry) above
In assay [9] the target is T3, Beta-1 adrenergic receptor. The assay is described as follows: In vitro activity to increase cAMP levels in Chinese hamster ovary (CHO) cells expressing the cloned human beta 1 Adrenergic receptor. It counts as cell-based.
Target sequence in this assay (P08588 whole entry): as the sequence (P08588 whole entry) above
Assay [10] deals with T3, Beta-1 adrenergic receptor. The assay is described as follows: Intrinsic activity to increase cAMP levels in Chinese hamster ovary (CHO) cells expressing the cloned human beta 1 Adrenergic receptor. The format is cell-based.
Target sequence in this assay (P08588 whole entry, looked up): as the sequence (P08588 whole entry) above

For the molecule `CS(=O)(=O)Nc1cc([C@@H](O)CNC2CCN(c3ccc(C(=O)NCCC(=O)O)cc3)CC2)ccc1O`, the EC50 (usually the concentration at which the effect is half-maximal) in [1] was determined as 260 nM. In other words, the sub-micromolar range.

Take `CC(C)[C@H](NC(=O)c1ccc(N2CCC(NC[C@H](O)c3ccc(O)c(NS(C)(=O)=O)c3)CC2)cc1)C(=O)O`: the EC50 in [2] was greater than 10000 nM; in [1], 26 nM; in assay [3], greater than 10000 nM. The Ki (as a rule, the equilibrium dissociation constant of an inhibitor or competing ligand from its target) in assay [4] is greater than 100000 nM; in [5], 3600 nM.

Turning to `CS(=O)(=O)Nc1cc([C@@H](O)CNC2CCN(c3ccc(C(=O)NCC(=O)O)cc3)CC2)ccc1O`, the EC50 was 40 nM in assay [2], 60 nM in [1] and 50 nM in assay [3]. In addition, in [6], the Thermogenesis turned out to be 51%. For the same molecule, the Ki is greater than 100000 nM in assay [4] and 11600 nM in assay [5].

On to `CC(C)C[C@H](NC(=O)c1ccc(N2CCC(NC[C@H](O)c3ccc(O)c(NS(C)(=O)=O)c3)CC2)cc1)C(=O)O`, for which the EC50 in assay [2] was determined as 80 nM; in assay [1], 8 nM; in assay [3], 60 nM. The molecule also gave a Thermogenesis in assay [6] of 53%. Besides, the Ki was greater than 100000 nM in [4] and 3400 nM in assay [5].

Turning to `CS(=O)(=O)Nc1cc([C@@H](O)CNC2CCN(c3ccc(CC(=O)O)cc3)CC2)ccc1O`, in assay [1], the EC50 is 270 nM. This lies in the sub-micromolar range.

For the molecule `CCCCN(C(=O)CC(=O)O)c1ccc(N2CCC(NC[C@H](O)c3ccc(O)c(NS(C)(=O)=O)c3)CC2)cc1`, the EC50 in [2] was found to be 60 nM; in assay [1], 9 nM; in assay [3], 40 nM. The same molecule returned a Thermogenesis in assay [6] of 35%. The Ki in [4] and in assay [5] was greater than 100000 nM throughout.

In assay [2], `CS(=O)(=O)Nc1cc([C@@H](O)CNC2CCN(c3ccc(C(=O)N4CCC[C@H]4C(=O)O)cc3)CC2)ccc1O` showed an EC50 of 20 nM.

For `CCCCN(c1ccc(N2CCC(NC[C@H](O)c3ccc(O)c(NS(C)(=O)=O)c3)CC2)cc1)S(=O)(=O)CC(=O)O`, the EC50 in assay [2] turned out to be 5000 nM; in assay [1], 4 nM; in assay [9], 2000 nM. Further, the IA in assay [7] was determined as 0.45; in assay [8], 1; in [10], 0.51.

`CS(=O)(=O)Nc1cc([C@@H](O)CNC2CCN(c3ccc(CCC(=O)O)cc3)CC2)ccc1O`: the EC50 in assay [2] came to 4700 nM; in [1] it was 39 nM; in [3], 9800 nM.

As to `CCOC(=O)CNC(=O)c1ccc(N2CCC(NC[C@H](O)c3ccc(O)c(NS(C)(=O)=O)c3)CC2)cc1`, the figures for the EC50 in assay [2], in [1] and in assay [3] were 3200 nM, 15 nM and 4500 nM, respectively.

As for `CS(=O)(=O)Nc1cc([C@@H](O)CNC2CCN(c3ccc(COCC(=O)O)cc3)CC2)ccc1O`, the EC50 in assay [2] was found to be 6000 nM; in [1], 66 nM; in assay [3], 1600 nM.

`CS(=O)(=O)Nc1cc([C@@H](O)CNC2CCN(c3ccc(C(=O)N[C@@H](CCC(=O)O)C(=O)O)cc3)CC2)ccc1O` came in with an EC50 in assay [1] of 92 nM.

As for `CS(=O)(=O)Nc1cc([C@@H](O)CNC2CCN(c3ccc(C(=O)O)cc3)CC2)ccc1O`, the EC50 was greater than 50000 nM in [2], 220 nM in [1] and 48700 nM in [9].

Turning to `CS(=O)(=O)Nc1cc([C@@H](O)CNC2CCN(c3ccc(C(=O)N[C@@H](Cc4ccccc4)C(=O)O)cc3)CC2)ccc1O`, the EC50 amounted to 1500 nM in assay [2] and 43700 nM in assay [3]. Besides, the results for the Ki in [4] and in [5] were greater than 100000 nM and 480 nM, respectively.

As for `CS(=O)(=O)Nc1cc([C@@H](O)CNC2CCN(c3ccc(C(N)=O)cc3)CC2)ccc1O`, the EC50 in assay [2] worked out at 270 nM; in [1] it was 20 nM; in assay [3], 1200 nM.

Take `CCCCN(CC(=O)O)C(=O)c1ccc(N2CCC(NC[C@H](O)c3ccc(O)c(NS(C)(=O)=O)c3)CC2)cc1`: the results for the EC50 in [2], in assay [1] and in assay [3] were 10500 nM, 36 nM and greater than 1000 nM, respectively.

`CCCCCCNC(=O)Nc1ccc(S(=O)(=O)Nc2ccc(CCNC[C@H](O)COc3ccc(O)cc3)cc2)cc1` [L-755507]: the EC50 in assay [2] turned out to be 20 nM; in assay [9], 330 nM. For the same molecule, the Thermogenesis in assay [6] was 28%. Besides, the Ki in [4] came out at 570 nM; in [5], 160 nM.

In the case of `CS(=O)(=O)Nc1cc([C@@H](O)CNC2CCN(c3ccc(NC(=O)CC(=O)O)cc3)CC2)ccc1O`, the EC50 in assay [2] amounted to 900 nM; in assay [1], 130 nM; in assay [3] it was 100 nM.
